Measured values reported in the NIST ThermoML archive (doi:10.1016/j.jct.2017.10.011).
Numbers after ± are expanded uncertainties.

Assays:
[1] = Crystal 2; DSC
[2] = Molar enthalpy of transition or fusion; conditions: Crystal 2; DSC

Triple point temperature [1]: 317.51 ± 2.1 K
Molar enthalpy of transition or fusion [2]: 0.422 ± 0.0502 kcal/mol
Compound: O=C1COC(=O)CO1 [1,4-dioxane-2,5-dione]
